# Tests used:
# Assay type in all cases: in vivo
# Zea mays = assay: Crop compatibility post-emergence, greenhouse pot test
# Description: (§1) Seeds of mono- and dicotyledonous weed plants and crop plants were laid out in sandy loam soil in plastic or wood-fiber pots, covered with soil and grown under controlled growth conditions in a greenhouse. 2 to 3 weeks after sowing, the trial plants were treated at the one-leaf stage. The compounds of the invention formulated in the form of wettable powders (WP) or as emulsion concentrates (EC) were then sprayed onto the green parts of the plant as an aqueous suspension or emulsion with addition of 0.5% additive at a water application rate equivalent to 600 L/ha. After the trial plants had stood for about 3 weeks in the greenhouse, under optimal growth conditions, the effect of the preparations was scored visually by comparison with untreated controls. For example, 100% efficacy=plants have died, 0% efficacy=like control plants.
# (§2) Crop plant compatibilities were also scored correspondingly.
# (§3) The effects observed are reported here on selected crop plants by comparison, with the untreated controls (values in %).
# Triticum aestivum = assay: as above
# Description: as §1, §2, §3
# Oryza sativa = assay: as above
# Description: as §1, §2, §3
# Matricaria inodora [1] = assay: Herbicidal action pre-emergence, greenhouse pot test; details: application rate 320 g/ha
# Excerpt: Seeds of mono- and dicotyledonous weeds and crop plants were laid out in plastic or organic plant pots and covered with soil. The compounds of the invention formulated in the form of wettable powders (WP) or as emulsion concentrates (EC) were then applied to the surface of the covering soil as an aqueous suspension or emulsion with addition of 0.5% additive at a water application rate equivalent to 600 L/ha. After the treatment, the pots were placed in a greenhouse and kept under good growth conditions for the test plants. After about 3 weeks, the efficacy of the preparations was scored visually as a percentage by comparison with untreated controls. For example, 100% efficacy=plants have died. 0% efficacy=like control plants. Tables B1 to B17 below show the efficacies of selected compounds of the general formula (I) […] aforementioned trial method.
# Avena fatua = assay: as above; details: application rate 320 g/ha
# Excerpt: (§4) Seeds of mono- and dicotyledonous weeds and crop plants were laid out in plastic or organic plant pots and covered with soil. The compounds of the invention formulated in the form of wettable powders (WP) or as emulsion concentrates (EC) were then applied to the surface of the covering soil as an aqueous suspension or emulsion with addition of 0.5% additive at a water application rate equivalent to 600 L/ha. After the treatment, the pots were placed in a greenhouse and kept under good growth conditions for the test plants. After about 3 weeks, the efficacy of the preparations was scored visually as a percentage by comparison with untreated controls. For example, 100% efficacy=plants have died. 0% efficacy=like control plants. Tables B1 to B17 below show the efficacies of selected compounds of the general formula (I) according to tables I.1 to I.50 on various harmful plants and an application rate corresponding to 320 g/ha or lower that were obtained by the aforementioned trial method.
# Abutilon theophrasti [2] = assay: as above; details: application rate 320 g/ha
# Excerpt: as §4
# Hordeum murinum = assay: as above; details: application rate 320 g/ha
# Excerpt: as §4
# Lolium rigidum = assay: as above; details: application rate 320 g/ha
# Excerpt: as §4
# Amaranthus retroflexus [3] = assay: as above; details: application rate 80 g/ha
# Excerpt: as §4
# Polygonum convolvulus [4] = assay: as above; details: application rate 320 g/ha
# Excerpt: as §4
# Setaria viridis [5] = assay: as above; details: application rate 320 g/ha
# Excerpt: as §4
# Echinochloa crus-galli [6] = assay: as above; details: application rate 320 g/ha
# Excerpt: as §4
# Alopecurus myosuroides [7] = assay: as above; details: application rate 320 g/ha
# Excerpt: as §4
# Stellaria media [8] = assay: as above; details: application rate 320 g/ha
# Excerpt: as §4
# Veronica persica [9] = assay: as above; details: application rate 320 g/ha
# Excerpt: as §4
# Viola tricolor [10] = assay: as above; details: application rate 320 g/ha
# Excerpt: as §4
# Pharbitis purpurea [11] = assay: as above; details: application rate 320 g/ha
# Excerpt: as §4
# Abutilon theophrasti [12] = assay: Herbicidal action post-emergence, greenhouse pot test; details: application rate 80 g/ha
# Description: as §1, with “plants. Tables A1 to A16 below show the efficacies of selected compounds of the general formula (I) according to tables I.1 to I.50 on various harmful plants and an application rate corresponding to 80 g/ha or lower that were obtained by the aforementioned trial method.” for “plants.”
# Matricaria inodora [13] = assay: as above; details: application rate 80 g/ha
# Description: as §1, with “plants. Tables A1 to A16 below show the efficacies of selected compounds of the general formula (I) according to tables I.1 to I.50 on various harmful plants and an application rate corresponding to 80 g/ha or lower that were obtained by the aforementioned trial method.” for “plants.”
# Amaranthus retroflexus [14] = assay: as above; details: application rate 80 g/ha
# Description: as §1, with “plants. Tables A1 to A16 below show the efficacies of selected compounds of the general formula (I) according to tables I.1 to I.50 on various harmful plants and an application rate corresponding to 80 g/ha or lower that were obtained by the aforementioned trial method.” for “plants.”
# Polygonum convolvulus [15] = assay: as above; details: application rate 80 g/ha
# Description: as §1, with “plants. Tables A1 to A16 below show the efficacies of selected compounds of the general formula (I) according to tables I.1 to I.50 on various harmful plants and an application rate corresponding to 80 g/ha or lower that were obtained by the aforementioned trial method.” for “plants.”
# Setaria viridis [16] = assay: as above
# Description: as §1, with “plants. Tables A1 to A16 below show the efficacies of selected compounds of the general formula (I) according to tables I.1 to I.50 on various harmful plants and an application rate corresponding to 80 g/ha or lower that were obtained by the aforementioned trial method.” for “plants.”
# Echinochloa crus-galli [17] = assay: as above; details: application rate 80 g/ha
# Description: as §1, with “plants. Tables A1 to A16 below show the efficacies of selected compounds of the general formula (I) according to tables I.1 to I.50 on various harmful plants and an application rate corresponding to 80 g/ha or lower that were obtained by the aforementioned trial method.” for “plants.”
# Alopecurus myosuroides [18] = assay: as above; details: application rate 80 g/ha, scored visually after about 3 weeks vs untreated controls
# Description: as §1, with “plants. Tables A1 to A16 below show the efficacies of selected compounds of the general formula (I) according to tables I.1 to I.50 on various harmful plants and an application rate corresponding to 80 g/ha or lower that were obtained by the aforementioned trial method.” for “plants.”
# Stellaria media [19] = assay: as above; details: application rate 80 g/ha
# Description: as §1, with “plants. Tables A1 to A16 below show the efficacies of selected compounds of the general formula (I) according to tables I.1 to I.50 on various harmful plants and an application rate corresponding to 80 g/ha or lower that were obtained by the aforementioned trial method.” for “plants.”
# Veronica persica [20] = assay: as above; details: application rate 80 g/ha
# Description: as §1, with “plants. Tables A1 to A16 below show the efficacies of selected compounds of the general formula (I) according to tables I.1 to I.50 on various harmful plants and an application rate corresponding to 80 g/ha or lower that were obtained by the aforementioned trial method.” for “plants.”
# Pharbitis purpurea [21] = assay: as above; details: application rate 80 g/ha
# Description: as §1, with “plants. Tables A1 to A16 below show the efficacies of selected compounds of the general formula (I) according to tables I.1 to I.50 on various harmful plants and an application rate corresponding to 80 g/ha or lower that were obtained by the aforementioned trial method.” for “plants.”
# Viola tricolor [22] = assay: as above; details: application rate 80 g/ha
# Description: as §1, with “plants. Tables A1 to A16 below show the efficacies of selected compounds of the general formula (I) according to tables I.1 to I.50 on various harmful plants and an application rate corresponding to 80 g/ha or lower that were obtained by the aforementioned trial method.” for “plants.”
Structure (SMILES),Matricaria inodora (Efficacy in %) (Matricaria inodora [1]),Avena fatua (Efficacy in %) (Avena fatua),Abutilon theophrasti (Efficacy in %) (Abutilon theophrasti [2]),Hordeum murinum (Efficacy in %) (Hordeum murinum),Lolium rigidum (Efficacy in %) (Lolium rigidum),Amaranthus retroflexus (Efficacy in %) (Amaranthus retroflexus [3]),Polygonum convolvulus (Efficacy in %) (Polygonum convolvulus [4]),Setaria viridis (Efficacy in %) (Setaria viridis [5]),Echinochloa crus-galli (Efficacy in %) (Echinochloa crus-galli [6]),Stellaria media (Efficacy in %) (Stellaria media [8]),Veronica persica (Efficacy in %) (Veronica persica [9]),Viola tricolor (Efficacy in %) (Viola tricolor [10]),Pharbitis purpurea (Efficacy in %) (Pharbitis purpurea [11]),Abutilon theophrasti (Efficacy in %) (Abutilon theophrasti [12]),Matricaria inodora (Efficacy in %) (Matricaria inodora [13]),Amaranthus retroflexus (Efficacy in %) (Amaranthus retroflexus [14]),Polygonum convolvulus (Efficacy in %) (Polygonum convolvulus [15]),Echinochloa crus-galli (Efficacy in %) (Echinochloa crus-galli [17]),Alopecurus myosuroides (Efficacy in %) (Alopecurus myosuroides [18]),Stellaria media (Efficacy in %) (Stellaria media [19]),also measured
COC(=O)C(C)(C)OC(=O)C(C)Sc1cc(-n2c(=O)cc(C(F)(F)F)n(C)c2=O)c(F)cc1Cl (stereo not drawn) [I.1-132],100%,90%,100%,80%,100%,100%,100%,100%,100%,100%,100%,100%,100%,100%,90%,100%,100%,100%,80%,100%,Zea mays (Efficacy in %) (Zea mays; application rate 20 g/ha): 20%; Triticum aestivum (Efficacy in %) (Triticum aestivum; application rate 20 g/ha): 10%; Oryza sativa (Efficacy in %) (Oryza sativa; application rate 80 g/ha): 20%; Alopecurus myosuroides (Efficacy in %) (Alopecurus myosuroides [7]): 100%; Setaria viridis (Efficacy in %) (Setaria viridis [16]; application rate 80 g/ha): 100%; Veronica persica (Efficacy in %) (Veronica persica [20]): 100%; Pharbitis purpurea (Efficacy in %) (Pharbitis purpurea [21]): 100%
CC(Sc1cc(-n2c(=O)cc(C(F)(F)F)n(C)c2=O)c(F)cc1Cl)C(=O)OC1CCOC1=O (stereo not drawn) [I.1-141],100%,80%,100%,100%,100%,100%,100%,100%,100%,100%,100%,100%,100%,100%,100%,100%,100%,100%,90%,100%,Zea mays (Efficacy in %) (Zea mays; application rate 5 g/ha): 10%; Triticum aestivum (Efficacy in %) (Triticum aestivum; application rate 20 g/ha): 20%; Oryza sativa (Efficacy in %) (Oryza sativa; application rate 20 g/ha): 0%; Alopecurus myosuroides (Efficacy in %) (Alopecurus myosuroides [7]): 80%; Setaria viridis (Efficacy in %) (Setaria viridis [16]; application rate 20 g/ha): 100%; Veronica persica (Efficacy in %) (Veronica persica [20]): 100%; Pharbitis purpurea (Efficacy in %) (Pharbitis purpurea [21]): 100%
CC(Sc1cc(-n2c(=O)cc(C(F)(F)F)n(C)c2=O)c(F)cc1Cl)C(=O)OCCC(N)=O (stereo not drawn) [I.1-151],100%,90%,100%,80%,90%,100%,100%,100%,100%,100%,100%,100%,100%,100%,100%,100%,100%,100%,90%,90%,Zea mays (Efficacy in %) (Zea mays; application rate 5 g/ha): 20%; Triticum aestivum (Efficacy in %) (Triticum aestivum; application rate 80 g/ha): 20%; Oryza sativa (Efficacy in %) (Oryza sativa; application rate 20 g/ha): 10%; Setaria viridis (Efficacy in %) (Setaria viridis [16]; application rate 80 g/ha): 100%; Veronica persica (Efficacy in %) (Veronica persica [20]): 100%; Viola tricolor (Efficacy in %) (Viola tricolor [22]): 100%; Pharbitis purpurea (Efficacy in %) (Pharbitis purpurea [21]): 100%
